ChEMBL document CHEMBL1137841, “Peptidyl aldehydes as slow-binding inhibitors of dual-specificity phosphatases” (Bioorg Med Chem Lett, 2004)

How the values were obtained:
[1] = Tested for effect on inhibition of DSP VH1 (dual-specificity phosphatase vaccinia open reading frame H1) and the value reported is overall equilibrium constant
[2] = Tested for effect on inhibition of DSP VH1 (dual-specificity phosphatase vaccinia open reading frame H1) and the value reported is equilibrium constant
[3] = target: T1, Dual specificity protein phosphatase 3 (Homo sapiens, UniProt P51452); test: Tested for effect on inhibition of Dual specificity protein phosphatase 3 and the value reported is overall equilibrium constant
Target sequence in this assay (P51452 whole entry): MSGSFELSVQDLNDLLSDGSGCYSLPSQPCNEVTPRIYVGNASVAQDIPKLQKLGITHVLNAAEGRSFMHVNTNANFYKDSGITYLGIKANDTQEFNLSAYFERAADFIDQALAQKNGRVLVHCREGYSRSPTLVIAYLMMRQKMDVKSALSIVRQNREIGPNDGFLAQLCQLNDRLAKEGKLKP

[4] = Tested for effect on inhibition of protein tyrosine phosphatase 1B
[5] = target: T1, Dual specificity protein phosphatase 3; test: Tested for effect on inhibition of Dual specificity protein phosphatase 3 at a dose of 2.5 mM
Target sequence in this assay (P51452 whole entry, looked up): as the sequence (P51452 whole entry) above

[6] = Tested for effect on inhibition of DSP VH1 (dual-specificity phosphatase vaccinia open reading frame H1)

Compound | Ki [1] [µM] | Ki [2] [µM] | Ki [3] [µM] | IC50 [4] [µM] | inhibition [5] [%] | IC50 [6] [µM]
NC(=O)[C@H](CCC(=O)O)NC(=O)[C@H](CCC(=O)O)NC(=O)CNC(=O)c1ccc(/C=C/C=O)cc1 | 18 | 190 | 290 | – | – | –
O=C/C=C/c1ccc(C(=O)O)cc1 | – | – | – | 970 | 40 | ~1000
